From patent US5401739A, “Benzothiadiazine derivatives” (Taiho Pharmaceutical Co. Ltd., priority 1991, dated 1995)

Assays:
gastric acid secretion [1] = test: Inhibitory activity on gastric acid secretion, comparison with Compound A (Pharmacological Test 3); assay type: in vivo, Male Wistar rats; settings: 30 mg/kg; for Percent inhibition on gastric acid secretion: Table 7, intraduodenal as in Test 1
Description: (§1) Male Wistar rats (weighing 172 to 200 g) were divided into groups, 7 to 8 rats in each group. The animals were fasted for 24 hours. Under ether anesthesia, the abdomen was incised and the pylorus was ligated according to the method of Shay et al. [Gastroenterology, 1, 420 (1963)]. The animals were sacrificed 4 hours later, and the stomach was removed to collect gastric juice, which was then centrifuged (3000 r.p.m., 10 minutes). The volume of gastric juice and the acidity were measured. The compound to be tested was dissolved in water, and the solution was intraduodenally given to animals at varying doses immediately after the ligation of the pylorus.
Inhibitory activity on gastric acid secretion was measured in the same manner as in Pharmacological Test 1 with use of Compound 2 below as the present compound and, for comparison, Compound A below of Example 37c in JP-A-116277/1984.

[2] = test system: hydrochloric acid induced-ulcer; test: Effect on hydrochloric acid induced-ulcer, comparison with Compound A (Pharmacological Test 4); assay type: in vivo, Male Wistar rats; settings: 30 mg/kg; for Percent inhibition of effect on hydrochloric acid induced-ulcer: Table 8, oral as in Test 2
Description: (§2) Male Wistar rats (weighing 156 to 189 g) were divided into groups, 5 to 8 rats in each group. The animals were fasted for 24 hours, and 5 ml/kg of 0.6N hydrochloric acid was given orally. The animals were sacrificed 1 hour later. The stomach was removed, and 1% formalin was injected into the removed stomach to fix the stomach. The stomach was then incised open along the greater curvature. The length (mm) of gastric lesions was measured, summed and used as an ulcer index. The compound to be tested was dissolved in water, and the solution was orally given to animals at varying doses 1 hour before the injection of hydrochloric acid.

[3] = test system: hydrochloric acid induced-ulcer; test: Effect on hydrochloric acid induced-ulcer (Pharmacological Test 2); assay type: in vivo, Male Wistar rats; settings: 1 h before 0.6N HCl
Description: Effect on hydrochloric acid induced-ulcer:
as §2

gastric acid secretion [4] = test: Inhibitory activity on gastric acid secretion (pylorus ligation, Pharmacological Test 1); assay type: in vivo, Male Wistar rats
Description: Inhibitory activity on gastric acid secretion:
as §1

[5] = Hygroscopicity (remark in Table 1); assay type: physicochemical
[6] = Table 3, 10 mg/kg intraduodenal, 4 h, control 2.5 ± 0.5
[7] = Table 3, 10 mg/kg intraduodenal, 4 h, control 65.2 ± 10.7
[8] = Table 3, 10 mg/kg intraduodenal, 4 h, control 162.3 ± 41.6

## COc1ccc(CN(CCCOc2cccc(CN3CCCCC3)c2)C2=NS(=O)(=O)c3ccccc3N2C)cc1 [Compound 2, 3-[N-[3-[3-(piperidinomethyl)phenoxy]propyl]-4'-methoxybenzylamino]-4-methyl-1,2,4-benzothiadiazine-1,1-dioxide]
Gastric acid secretion [1]
  Percent inhibition on gastric acid secretion: 95.1%
Gastric acid secretion [1]; in words, vs Compound A
  inhibitory activity on gastric acid secretion, compared with Compound A: almost equal to Compound A
[2]
  Percent inhibition of effect on hydrochloric acid induced-ulcer: 86.9%
[2]; in words, vs Compound A
  effect on hydrochloric acid induced-ulcer, compared with Compound A: extremely excellent than Compound A
[3]; Table 4, 3 mg/kg oral
  Percent inhibition (ulcer index): 33.6%
[3]; Table 4, 3 mg/kg oral, control 72.7 ± 23.7
  Ulcer index: 48.3 ± 17.8 mm
[3]; Table 4, 10 mg/kg oral
  Percent inhibition (ulcer index): 55.8%
[3]; Table 4, 10 mg/kg oral, control 72.7 ± 23.7
  Ulcer index: 32.1 ± 24.9 mm
[3]; Table 4, 30 mg/kg oral
  Percent inhibition (ulcer index): 85.0%
[3]; Table 4, 30 mg/kg oral, control 72.7 ± 23.7
  Ulcer index: 10.9 ± 17.2 mm
[3]; Table 4, 100 mg/kg oral
  Percent inhibition (ulcer index): 94.5%
[3]; Table 4, 100 mg/kg oral, control 72.7 ± 23.7
  Ulcer index: 4.0 ± 6.1 mm
Gastric acid secretion [4]; Table 2, 3 mg/kg intraduodenal, 4 h, control 78.4 ± 12.0
  Acidity: 64.8 ± 15.1 μ Eq/ml
Gastric acid secretion [4]; Table 2, 3 mg/kg intraduodenal, 4 h, control 391.6 ± 161.6
  Total acid output: 247.8 ± 96.9 μ Eq
Gastric acid secretion [4]; Table 2, 3 mg/kg intraduodenal, 4 h after pylorus ligation, control 4.8 ± 1.5
  Volume of gastric juice: 3.7 ± 0.9 mL
Gastric acid secretion [4]; Table 2, 10 mg/kg intraduodenal, 4 h, control 4.8 ± 1.5
  Volume of gastric juice: 3.4 ± 1.8 mL
Gastric acid secretion [4]; Table 2, 10 mg/kg intraduodenal, 4 h, control 78.4 ± 12.0
  Acidity: 54.9 ± 16.1 μ Eq/ml
Gastric acid secretion [4]; Table 2, 10 mg/kg intraduodenal, 4 h, control 391.6 ± 161.6
  Total acid output: 205.9 ± 165.0 μ Eq
Gastric acid secretion [4]; Table 2, 30 mg/kg intraduodenal, 4 h, control 4.8 ± 1.5
  Volume of gastric juice: 2.4 ± 1.4 mL
Gastric acid secretion [4]; Table 2, 30 mg/kg intraduodenal, 4 h, control 78.4 ± 12.0
  Acidity: 30.9 ± 16.7 μ Eq/ml
Gastric acid secretion [4]; Table 2, 30 mg/kg intraduodenal, 4 h, control 391.6 ± 161.6
  Total acid output: 85.3 ± 92.7 μ Eq

## CN1C(NC/C=C\COc2cccc(CN3CCCCC3)c2)=NS(=O)(=O)c2ccccc21 [Compound 22, 3-[N-[4-[3-(piperidinomethyl)phenoxy]-(cis) 2-butenyl]amino]-4-methyl-1,2,4-benzothiadiazine-1,1-dioxide]
[3]; Table 5, 10 mg/kg oral
  Percent inhibition (ulcer index): 16.5%
[3]; Table 5, 10 mg/kg oral, control 61.2 ± 25.4
  Ulcer index: 51.1 ± 20.4 mm
[3]; Table 5, 30 mg/kg oral
  Percent inhibition (ulcer index): 35.6%
[3]; Table 5, 30 mg/kg oral, control 61.2 ± 25.4
  Ulcer index: 39.4 ± 13.2 mm
[3]; Table 5, 100 mg/kg oral
  Percent inhibition (ulcer index): 48.4%
[3]; Table 5, 100 mg/kg oral, control 61.2 ± 25.4
  Ulcer index: 31.6 ± 5.0 mm
Gastric acid secretion [4]; Table 3, 3 mg/kg intraduodenal, 4 h, control 2.5 ± 0.5
  Volume of gastric juice: 2.0 ± 0.6 mL
Gastric acid secretion [4]; Table 3, 3 mg/kg intraduodenal, 4 h, control 65.2 ± 10.7
  Acidity: 8.6 ± 8.2 μ Eq/ml
Gastric acid secretion [4]; Table 3, 3 mg/kg intraduodenal, 4 h, control 162.3 ± 41.6
  Total acid output: 15.5 ± 9.6 μ Eq
Gastric acid secretion [4]; [6]
  Volume of gastric juice: 2.3 ± 1.0 mL
Gastric acid secretion [4]; [7]
  Acidity: 2.1 ± 3.9 μ Eq/ml
Gastric acid secretion [4]; [8]
  Total acid output: 4.5 ± 9.4 μ Eq

## CCCCN1C(NC/C=C\COc2cccc(CN3CCCCC3)c2)=NS(=O)(=O)c2ccccc21 [Compound 28]
[3]; Table 6, 10 mg/kg oral
  Percent inhibition (ulcer index): 22.6%
[3]; Table 6, 10 mg/kg oral, control 150.0 ± 35.2
  Ulcer index: 116.1 ± 34.9 mm
[3]; Table 6, 30 mg/kg oral
  Percent inhibition (ulcer index): 62.8%
[3]; Table 6, 30 mg/kg oral, control 150.0 ± 35.2
  Ulcer index: 55.8 ± 32.4 mm
[3]; Table 6, 100 mg/kg oral
  Percent inhibition (ulcer index): 96.6%
[3]; Table 6, 100 mg/kg oral, control 150.0 ± 35.2
  Ulcer index: 5.1 ± 4.1 mm
Gastric acid secretion [4]; [6]
  Volume of gastric juice: 2.2 ± 0.8 mL
Gastric acid secretion [4]; [7]
  Acidity: 59.2 ± 12.4 μ Eq/ml
Gastric acid secretion [4]; [8]
  Total acid output: 133.3 ± 69.0 μ Eq
Gastric acid secretion [4]; Table 3, 30 mg/kg intraduodenal, 4 h, control 2.5 ± 0.5
  Volume of gastric juice: 1.5 ± 0.5 mL
Gastric acid secretion [4]; Table 3, 30 mg/kg intraduodenal, 4 h, control 65.2 ± 10.7
  Acidity: 32.0 ± 14.4 μ Eq/ml
Gastric acid secretion [4]; Table 3, 30 mg/kg intraduodenal, 4 h, control 162.3 ± 41.6
  Total acid output: 53.6 ± 32.9 μ Eq
Gastric acid secretion [4]; Table 3, 100 mg/kg intraduodenal, 4 h, control 2.5 ± 0.5
  Volume of gastric juice: 1.1 ± 0.5 mL
Gastric acid secretion [4]; Table 3, 100 mg/kg intraduodenal, 4 h, control 65.2 ± 10.7
  Acidity: 4.9 ± 8.2 μ Eq/ml
Gastric acid secretion [4]; Table 3, 100 mg/kg intraduodenal, 4 h, control 162.3 ± 41.6
  Total acid output: 4.6 ± 7.1 μ Eq

## COc1ccc2c(c1)N(C)C(NC/C=C\COc1cccc(CN3CCCCC3)c1)=NS2(=O)=O [Compound 29, 3-[N-[4-[3-(piperidinomethyl)phenoxy]-(cis) 2-butenyl]amino]-4-methyl-6-methoxy-1,2,4-benzothiadiazine-1,1-dioxide]
[5]
  Hygroscopicity: Hygroscopic

## CN1C(NCCCOc2cccc(CN3CCCCC3)c2)=NS(=O)(=O)c2ccccc21 [Compound A, reference compound]
Gastric acid secretion [1]
  Percent inhibition on gastric acid secretion: 96.2%
[2]
  Percent inhibition of effect on hydrochloric acid induced-ulcer: 59.4%
